The values below come from PubChem BioAssay AID179 (DTP/NCI, 2004).

One may read the EC50 as the concentration that produces a half-maximal response. As usually defined, the IC50 is the concentration that gives 50% inhibition.

Activity calls are given as the source filed them.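 Rule for the calls: active = compounds giving half or more protection of infected cells from virus-caused growth loss, again on retest; inactive = the rest.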

This assay concerns CEM cells HIV-1 protection, formazan growth assay. The experiment in a line: NCI AIDS Antiviral Assay. To be noted: for IC50: measured here: growth of uninfected CEM cells. Here is the method: The ability of compounds to protect human CEM cells from HIV-1 infection is measured as a screen for new compounds capable of inhibiting the HIV virus. Five concentrations of drug were tested on uninfected and infected cells and cell growth was measured using a soluble formazan assay. […] Compounds that provided at least 50% protection were retested. Compounds that provided at least 50% protection on retest were listed as moderately active. Compounds that reproducibly provided 100% protection were listed as confirmed active. […] Note that the inability to provide protection could be due to toxicity.

For the compound `N#CC1(C2SCCS2=O)C2=C(C(=O)c3ccccc3C2=O)N2CCCC21` (centres undefined), the result was inactive.

On to `Cc1ccc(/C=C/C(=O)c2sc(C(N)=S)nc2C)cc1`, for which the EC50 was above 85.1 µM and the IC50 was above 85.1 µM.

Regarding `CC1OC(OC2C(O[C@H]3CC[C@@]4(C)C(=CC[C@H]5[C@@H]6C[C@@H]7O[C@](O)(CC[C@@H](C)COC8OC(CO)C(O)C(O)C8O)[C@@H](C)[C@@H]7[C@@]6(C)CC[C@@H]54)C3)OC(CO)C(O)C2OC2OC(CO)C(O)C(O)C2O)C(O)C(O)C1O` (some centres undefined), the EC50 is above 100 µM and the IC50 was 2.51 µM. Take `Nc1ccc(N=Nc2ccc(CCc3ccc(N=Nc4ccc(N)c5cc(S(=O)(=O)O)ccc45)cc3S(=O)(=O)O)c(S(=O)(=O)O)c2)c2ccc(S(=O)(=O)O)cc12`: the EC50 was above 145 µM and the IC50 was 53.7 µM. With `NC(=O)CCC(F)(C(N)=O)C(N)=O`, the EC50 was above 200 µM and the 50% inhibitory concentration (IC50) was above 200 µM. As to `COC(=O)C(C(=O)C(=O)Nc1c(Cl)cc([N+](=O)[O-])cc1Cl)c1nc2cc(C)c(C)cc2[nH]c1=O` (centres undefined), the EC50 was above 97.7 µM and the IC50 was above 97.7 µM.

Take `CC1Cc2cc(OCc3ccccc3)cc(OCc3ccccc3)c2[C@H](C)N1Cc1ccccc1` (some centres undefined): the EC50 was above 200 µM and the IC50 amounted to 14.5 µM. As to `O=C1CCc2c(Cl)sc(Cl)c21`, the EC50 was above 331 µM and the IC50 was found to be 151 µM. On the same counts, the results for `CCC/C(=N\NC(=S)N1CCN(c2ccccn2)CC1)c1ccccn1` are above 19.5 µM and 0.011 µM.

Take `CC(=O)Nc1c(C)cc2c(nc3n2CCC3OC(C)=O)c1[N+](=O)[O-]` (centres undefined): the EC50 was above 200 µM and the IC50 is above 200 µM.

`O=C(CC12C3C4C1C1C2C3C41CC(=O)NO)NO` (centres undefined): the EC50 was above 251 µM and the IC50 was 49 µM. Take `Cc1ccc(S(=O)(=O)N2CCCC2C(=O)NNC(N)=S)cc1` (centres undefined): the EC50 is above 200 µM and the IC50 worked out at 117 µM.

Regarding `Cc1ccc(NC(=O)C2C(=O)N(c3ccc(C)cc3)C(=O)/C2=N\NC(N)=S)cc1` (centres undefined), the EC50 is above 12.6 µM and the IC50 is above 12.6 µM.

As for `O=c1ccn([C@@H]2C=C(CO)[C@@H](O)[C@H]2O)c(=O)[nH]1`, the EC50 was above 200 µM and the IC50 is above 200 µM. On to `CN(C)c1ccc(/C=C2\Oc3ccccc3C2=O)cc1`, for which the EC50 is above 200 µM and the IC50 is above 200 µM.

With `Cc1ccc(N2C(=O)C=C(C3=C(O)C(=O)N(c4ccc(C)cc4)C3=O)C2=O)cc1`, the EC50 was 135 µM and the IC50 was above 200 µM. On the same counts, the results for `NN1CCc2ccccc2C1` are above 200 µM and above 200 µM. The matching figures for `O=C1CSC(/C=C/c2ccccc2)N1c1ccc(-n2c(-c3ccccc3)nc3ccccc3c2=O)cc1` (centres undefined): above 200 µM and 105 µM. With `O=[N+]([O-])c1cccc(C=NC23CC4CC(CC(C4)C2)C3)c1`, the EC50 was above 66.1 µM and the IC50 is above 66.1 µM. Take `CC(CC(C)[C@H]1CCC2[C@H]3C(CC[C@@]21C)[C@@]1(C)CCC(O)C[C@H]1C[C@@H]3O)C(=O)O` (some centres undefined): the result was inactive.

As to `c1csc(-c2ccc(-c3ccc(-c4cccs4)s3)s2)c1`, the EC50 was above 200 µM and the IC50 is above 200 µM. `CC(=O)OC1(C#N)CC2OC1C1C2N=NN1C(=O)OC(C)(C)C` (centres undefined): the EC50 is above 209 µM and the IC50 came out at 28.8 µM. On the same counts, the results for `Cc1cc(S(=O)(=O)n2ccnc2Oc2ccccc2N)c(SSc2cc(Cl)c(C)cc2S(=O)(=O)n2ccnc2Oc2ccccc2N)cc1Cl` are above 100 µM and 19.5 µM. Take `NC1=NN(c2ccccc2)C(=O)C1C(=O)C(=O)Nc1cccc(C(F)(F)F)c1` (centres undefined): the result was inactive.

Take `CC(=O)Nc1ccc(S(=O)(=O)N/N=C/C(=O)O)cc1`: the EC50 is above 200 µM and the IC50 is above 200 µM. With `Cc1ccc(NC(=O)/C(Cc2cc(=O)oc3cc(O)ccc23)=N\NC(=O)C[N+](C)(C)C)cc1C`, the EC50 was above 186 µM and the IC50 was above 186 µM. `CCOC(=O)C(Cl)(NC(=O)NC(Cl)(C(=O)OCC)C(F)(F)F)C(F)(F)F` (centres undefined): the EC50 is above 200 µM and the IC50 was above 200 µM. As to `CCOC(=O)c1nc2cc(F)c(F)cc2nc1NCc1cc(OC)c(OC)c(OC)c1`, the EC50 is above 100 µM and the IC50 was above 100 µM. Turning to `CCOC(=O)c1nc2c(OC)nn(O)cc-2c1[N+](=O)[O-]`, the EC50 is above 457 µM and the IC50 turned out to be 5.75 µM. On the same counts, the results for `Nc1c(-c2cccc3ccccc23)c2ccc([N+](=O)[O-])cc2c(=O)n1-c1nc2ccccc2s1` are above 50.1 µM and 0.676 µM. On the same counts, the results for `CN(C)P1(=O)NCC(C(C)(C)C)CO1` (centres undefined) are above 562 µM and above 562 µM.

For the compound `CC1CCC2C1(C)CCC1C2(C)CCC2(C)C3CC(C)(C)CCC3(C)CCC12C` (centres undefined), the EC50 is 93.3 µM and the IC50 is above 100 µM. As to `Oc1ccc(CCl)c2cccnc12`, the EC50 was above 562 µM and the IC50 worked out at 10.2 µM. On to `COC1(OC)CCN(Cc2ccccc2)C1=O`, for which the EC50 was above 20 µM and the IC50 was 2.69 µM. On the same counts, the results for `CC(=O)OCC1OC(Nc2[nH]c(=O)n(C)c(=O)c2N=O)C(OC(C)=O)C(OC(C)=O)C1OC(C)=O` (centres undefined) are above 200 µM and above 200 µM. For the compound `Cc1ccc(SSCCCCCS(=O)O)cc1`, the outcome was inactive.

For `CC(=O)OCC1OC(n2c3c(c(-c4ccco4)c(C#N)c2=S)CCCC3)C(OC(C)=O)C(OC(C)=O)C1OC(C)=O` (centres undefined), the EC50 was above 200 µM and the half-maximal inhibitory concentration (IC50) amounted to 155 µM. On to `CN(CC(O)C(O)CN(C)C(=S)S)C(=S)S` (centres undefined), for which the EC50 is above 661 µM and the IC50 turned out to be 170 µM. In the case of `C=C1C(=O)OC2CC(C)C3(O)C=C(C(C)=O)C4(OC3CC12)C(=O)OC1CC(C)C(/C=C\C(C)=O)=CCC14` (centres undefined), the EC50 is above 37.2 µM and the IC50 turned out to be 19.1 µM. On to `COC(=O)C(Br)C1CCc2ccccc21` (centres undefined), for which the EC50 is above 251 µM and the IC50 turned out to be 141 µM. For `c1cc(C2N3CCCN2CC3)ccn1` (centres undefined), the outcome was inactive. Consider `O=C1CN(Cc2ccc(Cl)cc2)CC(=O)N2Cc3ccccc3CN12`, for which the EC50 is above 191 µM and the IC50 amounted to 148 µM.

Turning to `O=C1c2ccccc2C(=O)N1CCSCC(CO)SCCN1C(=O)c2ccccc2C1=O` (centres undefined), the EC50 is 191 µM and the IC50 was above 200 µM. The matching figures for `C(=N/NC1=NCCN1)/c1c2ccccc2c(/C=N\NC2=NCCN2)c2ccccc12`: above 1.07 µM and 0.0363 µM. On the same counts, the results for `CC[C@H]1CN(C)[C@H]2Cc3c([nH]c4ccccc34)C(=O)C[C@H]1C2C(=O)OC` (some centres undefined) are above 129 µM and above 129 µM. The matching figures for `CSc1cc(=O)[nH]c(=O)[nH]1`: above 200 µM and above 200 µM. `CCOC(=O)CN1CC(C2=C(O)CN(CC(=O)OCC)C2=O)=CC1=O`: the result was inactive. As for `COc1cc(C2c3cc4c(cc3CC3COC(=O)N32)OCO4)cc(OC)c1OC` (centres undefined), the EC50 was above 25.1 µM and the IC50 was found to be 1.38 µM. For the compound `N#Cc1cccc(/C=C/C(=O)c2ccccc2)c1`, the EC50 was above 22.4 µM and the IC50 is 4.07 µM. Consider `COc1ccc(O)c2c(=O)c3cc(O)ccc3oc12`, for which the EC50 was above 200 µM and the 50% inhibitory concentration (IC50) came to 30.2 µM. As to `COc1cccc(N2N=C3c4ccccc4-n4c(nc5ccccc54)C3C2N)c1` (centres undefined), the EC50 is above 200 µM and the IC50 was above 200 µM.

For the compound `OC1(c2cccnc2)c2ccccc2Oc2ccccc21`, the EC50 was above 200 µM and the IC50 was determined as 79.4 µM. Turning to `CC(C)(C)OC(=O)NCC(CNC(=O)OC(C)(C)C)c1nc(C(N)=O)cs1`, the EC50 is above 200 µM and the IC50 was above 200 µM. Regarding `Clc1ccc2nsnc2c1`, the result was inactive. As to `N#C/C(=C\c1ccc(C#N)cc1)c1ccccc1`, the EC50 was above 11.7 µM and the IC50 was above 11.7 µM. For the compound `O=C(NNC(=S)Nc1ccccc1)c1nsc2ccccc12`, the EC50 was above 110 µM and the IC50 was 17.8 µM. In the case of `Nc1nc(O)c(N=O)c(=O)[nH]1`, the EC50 was above 200 µM and the IC50 is above 200 µM. On to `CC(=O)OC[C@]12[C@H](OC(C)=O)[C@H](OC(C)=O)[C@@H]3C(OC(C)=O)[C@@]14OC3(C)COC(=O)c1cccnc1CCC(C)C(=O)OC([C@H]4C)[C@H](O)[C@@H]2OC(=O)c1ccccc1` (some centres undefined), for which the outcome was inactive. For `CC(C)C(=O)/C=C/c1ccc(Cl)cc1Cl`, the result was inactive. `COC(=O)C1=C(C(=O)OC)SC(=C2SC3=C(SC(=C4SCCS4)S3)S2)S1`: the EC50 is above 100 µM and the IC50 is above 100 µM. For `Cc1cn(C(CO)OC(CO)CN(O)C2C3CC4CC(C3)CC2C4)c(=O)[nH]c1=O` (centres undefined), the EC50 is above 200 µM and the IC50 was above 200 µM. On to `Nc1ccc(N=O)c(N)n1`, for which the EC50 was above 200 µM and the IC50 was above 200 µM.

For the compound `Cc1ccc(/C=C/C(=O)c2sc(-c3cccnc3)nc2C)cc1`, the EC50 was above 22.4 µM and the IC50 is above 22.4 µM. In the case of `CCCCCCCCOC1N(C2CC(N=[N+]=[N-])C(CO)O2)C(=O)NC(=O)[C@]1(C)Br` (some centres undefined), the EC50 was 0.427 µM and the IC50 worked out at 12.6 µM. The matching figures for `Cn1c2ccccc2[n+]2c(N)scc12`: above 200 µM and 39.8 µM.

Turning to `CCCCCCCCCCCCCCCCOC1N(C2CC(N=[N+]=[N-])C(CO)O2)C(=O)NC(=O)[C@]1(C)Cl` (some centres undefined), the EC50 is above 200 µM and the IC50 worked out at 31.6 µM. Turning to `CC(=O)O[C@]12CCCCCC1C1(O)C(O)CCC[C@H]12` (some centres undefined), the EC50 is above 200 µM and the IC50 was above 200 µM. In the case of `CC(=O)NC1C(OC2C(CO)OC(OCC3OC(n4ccc(N)nc4=O)C(O)C3O)C(NC(C)=O)C2O)OC(CO)C(O)C1O` (centres undefined), the EC50 is above 200 µM and the IC50 amounted to 11.2 µM. On the same counts, the results for `N[C@H]1C2C3CC4C5CC(C42)C1(c1ccccc1)C53` (some centres undefined) are above 661 µM and 53.7 µM.
